Data set [1] is described as follows: ABTS free radical scavenging activity. The note with it: for EC50: 10 min in the dark at RT. As to the method: In order to evaluate the antioxidant activity of the velutin derivatives, the ABTS radical scavenging activity was determined, as previously described. To generate the ABTS radical, 10 mL of 7 mM ABTS was mixed with 176 μL of 140 mM potassium peroxydisulfate in dH2O, and incubated in the dark at room temperature (RT) for 16 h, prior to use. The ABTS radical solution was diluted with absolute methanol, to obtain an absorbance of near 0.7 at 734 nm. Aliquots of 100 μL of each derivative in the indicated concentration range 2 to 200 μM were added to 100 μL of the diluted ABTS radical solution, and incubated for 10 min in the dark at RT. The absorbance was then measured at 732 nm using a SpectraMax M5 Multi-Mode microplate reader (Molecular Devices, Sunnyvale, CA, USA). The ABTS radical scavenging activity was calculated as follows:ABTS radical scavenging activity (%) = 1 − (Asample/Acontrol) × 100(1)

Data set [2] has as its system intracellular tyrosinase in B16F10 cells. Kind of data set: Cellular tyrosinase activity in α-MSH-stimulated melanoma cells (L-DOPA to dopachrome in lysates). The class given is cell-based, murine. The note with it: 48 h; for reversal of α-MSH-mediated tyrosinase activation / effect on α-MSH-mediated intracellular tyrosinase activation: 10 μM, 100 nM α-MSH. As to the method: (§1) B16F10 murine melanoma cells were cultured in DMEM medium (Gibco, Gaithersburg, USA) supplemented with 10% heat-inactivated fetal bovine serum (Gibco), 100 units/mL penicillin, and 100 μg/mL streptomycin (Gibco), at 37 °C under humidified 5% CO2.
Tyrosinase activity in B16 cells was examined on the basis of the amount of dopachrome produced from the catalytic reaction of intracellular tyrosinase. In brief, the melanoma cells were cultured in a 6-well plate for 24 h, followed by treatment with different concentrations of velutin derivatives for a further 48 h, in the presence of 100 nM of α–MSH. After washing twice with ice-cold D-PBS, the cells were lysed in 200 μL of radio-immunoprecipitation assay (RIPA) buffer (Sigma-Aldrich), containing protease and phosphatase inhibitors. After centrifugation of the cell lysate collected from each well at 15,000× g for 15 min, 100 μL of supernatant was mixed with 100 μL of 1 mM L-DOPA in PBS (pH 6.8), followed by incubation for 30 min at 37 °C. The absorbance of dopachrome was measured at 475 nm using the microplate reader. Data were normalized with protein concentration, determined by bicinchoninic acid assay.
(§2) Figure 3 Effect of velutin derivatives on intracellular melanin synthesis in B16F10 melanoma cells. B16F10 cells were treated with 0.1% DMSO as vehicle, or with 10 μM of each derivative, for 48 h. (A) Melanin content in the B16F10 cells was determined using a photometric method, as described in the Experimental Section. (B) Cellular tyrosinase activity was determined by measuring dopachrome generated by the enzymatic reaction of cell lysates with L-DOPA. Data are expressed as the mean ± SD of three independent experiments (** p < 0.005, *** p < 0.001 as compared to α-MSH-stimulated B16F10 cells).

Another data set deals with B16F10 melanoma cells. Kind of data set: Melanin content in α-MSH-stimulated melanoma cells. The note with it: 48 h; for effect on α-MSH-stimulated melanogenesis: 10 μM; for inhibition at 10 µM: Mus musculus, B16-F10, 10 μM, read-out: inhibition of α-MSH-stimulated melanogenesis. Format: cell-based, murine. As to the method:
as §1
The melanin content was determined as previously described, with some modifications. The melanoma cells were cultured in a 6-well plate for 24 h. They were treated with the indicated concentrations of velutin derivatives for a further 48 h, in the presence of 100 nM α–MSH. After washing twice with chilled Dulbecco’s phosphate buffered saline supplemented with calcium chloride and magnesium chloride (D-PBS, Gibco), the resulting cells were detached by incubation with trypsin–EDTA solution. After centrifugation at 1000 rpm for 3 min, the cell pellet was dissolved in 150 μL of 1 M NaOH containing 10% DMSO for 1 h at 60 °C. The melanin content was determined by the absorbance at 405 nm, using the microplate reader.
as §2

For another data set, the target named is T1, mushroom tyrosinase (Agaricus bisporus, UniProt C7FF04).
T1 construct: purchased Sigma-Aldrich
T1 sequence (C7FF04 1-392 limits assumed): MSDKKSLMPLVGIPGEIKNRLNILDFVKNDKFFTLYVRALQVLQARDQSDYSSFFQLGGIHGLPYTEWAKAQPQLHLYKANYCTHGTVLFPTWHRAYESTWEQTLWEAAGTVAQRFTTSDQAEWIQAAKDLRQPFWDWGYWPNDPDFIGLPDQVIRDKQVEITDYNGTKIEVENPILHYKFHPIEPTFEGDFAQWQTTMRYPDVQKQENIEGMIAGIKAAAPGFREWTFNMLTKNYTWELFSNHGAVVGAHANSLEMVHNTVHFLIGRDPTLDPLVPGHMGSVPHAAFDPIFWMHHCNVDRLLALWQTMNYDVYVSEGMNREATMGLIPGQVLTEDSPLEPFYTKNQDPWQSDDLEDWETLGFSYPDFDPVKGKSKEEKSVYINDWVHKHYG
Kind of data set: In vitro mushroom tyrosinase inhibition (dopachrome formation from L-tyrosine). The class given is biochemical. As to the method:
The inhibitory effect of velutin derivatives on tyrosinase activity was assessed by the amount of dopachrome synthesized from the catalytic reaction of tyrosinase. […] Then, 100 μL of 0.4 mM L-tyrosine was added to each well, followed by incubation for an additional 10 min at 37 °C.

Data set [3] has as its system B16F10 murine melanoma cells. Kind of data set: Cell viability / cytotoxicity by MTT assay. The class given is cell-based. To be noted: for death rate: 20 μM. As to the method: as §1
The viability of B16F10 cells was determined using an MTT assay, as previously described. In brief, B16F10 cells were seeded in 24-well plates at a density of 1 × 10^4 cells per well. After 24 h, the cells were treated with the indicated concentrations of velutin derivatives for 48 h. The cells were then incubated with MTT solution for 4 h, and the reduced formazan crystals were dissolved in DMSO. The resulting solution was transferred to 96-well plates, and the absorbance was measured at 540 nm, using a SpectraMax M5 Multi-Mode microplate reader.
Figure 2 Cytotoxicity of velutin derivatives in the B16F10 melanoma cells. B16F10 cells were treated with 0.1% DMSO as vehicle, or with 20 μM of each derivative, for 24 h. Cell viability was determined by the MTT assay, as described in the Experimental Section. Data are expressed as the mean ± SD of three independent experiments (** p < 0.005, *** p < 0.001 compared to the control cells).

The mark [4] stands for this setting: 50 U/mL mushroom tyrosinase, L-tyrosine substrate, read-out: IC50 in Mushroom Tyrosinase Activity.

“Also recorded” adds a separate entry of the source. Like-named read-outs stand apart in the source and are kept apart here.

For the compound `OC[C@H]1O[C@@H](Oc2ccc(O)cc2)[C@H](O)[C@@H](O)[C@@H]1O` [Arbutin, arbutin, reference compound], the response in data set [1] was half-maximal at 12.7 µM (EC50).
Regarding `COc1cc(O)c2c(=O)cc(-c3ccc(O)c(OC)c3)oc2c1` [Compound V1, Velutin], a half-maximal response in data set [1] (EC50) required 23.1 µM. Moreover, the “reversal of α-MSH-mediated tyrosinase activation” value (from here on “reversal”) in data set [2] was 87%. The “effect on α-MSH-stimulated melanogenesis” value in the data set with B16F10 melanoma cells (100 nM α-MSH) is recorded as “completely inhibited”. At mushroom tyrosinase (setting [4]), the IC50 came to 910 µM.
For the compound `COc1ccc2c(=O)cc(-c3ccc(O)c(OC)c3)oc2c1` [Compound V2, 2-(4-Hydroxy-3-methoxyphenyl)-7-methoxy-4H-chromen-4-one], it took 21.9 µM to reach a half-maximal effect in data set [1] (EC50). Further, the “effect on α-MSH-mediated intracellular tyrosinase activation” value in data set [2] is given as “did not”. Besides, in the data set on B16F10 melanoma cells (100 nM α-MSH), the “effect on α-MSH-stimulated melanogenesis” value is “completely inhibited”.
Compound `COc1cc(-c2cc(=O)c3c(O)cccc3o2)ccc1O` [Compound V3, 5-Hydroxy-2-(4-hydroxy-3-methoxyphenyl)-4H-chromen-4-one] came in with an EC50 in data set [1] of 23.3 µM. In addition, in data set [2], the “reversal” value was 97%. In addition, the inhibition at 10 µM with B16F10 melanoma cells (100 nM α-MSH) amounted to 50.7%.
In data set [1], `COc1cc(O)c2c(=O)cc(-c3ccc(O)cc3)oc2c1` [Compound V4, Genkwanin] came in with an EC50 of 55.7 µM. The “reversal” value in data set [2] is 100%. Besides, in the data set with B16F10 melanoma cells (100 nM α-MSH), the inhibition at 10 µM is 69.1%. Further, on mushroom tyrosinase, it took 204 µM to reach half-maximal inhibition (IC50).
Regarding `COc1cccc(-c2cc(=O)c3c(O)cc(OC)cc3o2)c1` [Compound V5, 5-Hydroxy-7-methoxy-2-(3-methoxyphenyl)-4H-chromen-4-one], in data set [1], the EC50 came to 96.6 µM. In data set [2], the “reversal” value worked out at 80%. Moreover, in the data set with B16F10 melanoma cells (100 nM α-MSH), the inhibition at 10 µM is 39.3%.
As to `COc1cc(OC)c2c(=O)cc(-c3ccc(O)c(OC)c3)oc2c1` [Compound V6, 2-(4-Hydroxy-3-methoxyphenyl)-5,7-dimethoxy-4H-chromen-4-one], the midpoint of the response in data set [1], the EC50, lay at 23.7 µM. The “increase of melanin synthesis” value with B16F10 melanoma cells (10 μM derivative, 100 nM α-MSH) is on record as 3.0 fold.
Take `COc1cc(-c2cc(=O)c3c(O)cc(O)cc3o2)ccc1O` [Compound V7, Chrysoeriol]: in data set [1], the EC50 was 22.1 µM. Also, the “effect on α-MSH-mediated intracellular tyrosinase activation” value in data set [2] is “did not; also recorded: no effect”. The “effect on α-MSH-stimulated melanogenesis” value in the data set with B16F10 melanoma cells (100 nM α-MSH) is “not significantly changed; also recorded: no effect”.
For `COc1cc(O)c2c(=O)cc(-c3ccc(O)c(O)c3)oc2c1` [Compound V8, 2-(3,4-Dihydroxyphenyl)-5-hydroxy-7-methoxy-4H-chromen-4-one], the midpoint of the response in data set [1], the EC50, lay at 5.47 µM. The IC50 at mushroom tyrosinase (setting [4]) is 202 µM. Moreover, in data set [3], the death rate is 71.8%.
In data set [1], `COc1cc(O)c2c(=O)cc(-c3ccc(OC)c(OC)c3)oc2c1` [Compound V9, 2-(3,4-Dimethoxyphenyl)-5-hydroxy-7-methoxy-4H-chromen-4-one] registered an EC50 of 100 µM. Further, the “effect on α-MSH-mediated intracellular tyrosinase activation” value in data set [2] is listed as “did not”. The “effect on α-MSH-stimulated melanogenesis” value in the data set with B16F10 melanoma cells (100 nM α-MSH) is recorded as “not significantly changed”. Moreover, at mushroom tyrosinase (setting [4]), the 50% inhibitory concentration (IC50) is 715 µM.
Turning to `COc1cc(OC)c2c(=O)cc(-c3ccc(OC)c(OC)c3)oc2c1` [Compound V10, 2-(3,4-Dimethoxyphenyl)-5,7-dimethoxy-4H-chromen-4-one], in data set [1], the “effect on radical scavenging activity” value is listed as “no significant effect”. Moreover, the “effect on α-MSH-mediated intracellular tyrosinase activation” value in data set [2] is listed as “did not”. The “effect on α-MSH-stimulated melanogenesis” value in the data set on B16F10 melanoma cells (100 nM α-MSH) is “not significantly changed”. The compound also showed a death rate in data set [3] of 24.0%.
As for `O=c1cc(-c2ccc(O)c(O)c2)oc2cc(O)cc(O)c12` [Compound V11, luteolin], in data set [1], it took 6.13 µM to reach a half-maximal effect (EC50). The IC50 at mushroom tyrosinase (setting [4]) is 36.7 µM. The compound also returned a death rate in data set [3] of 69.7%. The “effect on cell viability / cytotoxicity” value in data set [3] (concentrations up to 20 μM) was “cytotoxicity”.
As to `O=c1cc(-c2ccccc2)oc2ccccc12` [Compound V12, 2-Phenylchromen-4-one], the “effect on radical scavenging activity” value in data set [1] is listed as “no significant effect”.
Turning to “α-melanocyte stimulating hormone [α–MSH, reference compound]”, in data set [2] (100 nM α-MSH alone), the “activation of tyrosinase by α-MSH” value is “approximately 1.7 fold”. Also, in the data set with B16F10 melanoma cells (100 nM α-MSH alone), the “increase of melanin content by α-MSH” value was 1.9 fold.
